According to ChEMBL document CHEMBL1201861, “Genomics of Drug Sensitity in Cancer screening data, Wellcome Trust Sanger Institute”:

Key:
[1] = tested on: Daoy; assay: cells; assay type: functional, cell-based; conditions: Homo sapiens;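 also: daoy cell growth inhibition, read out as cell viability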
Description: SANGER: Inhibition of human Daoy cell growth in a cell viability assay.

[2] = tested on: HCC2157; assay: cells; assay type: functional, cell-based; conditions: Homo sapiens;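 also: growth inhibition of the cancer cell line, read out as cell viability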
Description: SANGER: Inhibition of human HCC2157 cell growth in a cell viability assay.

[3] = tested on: NCI-H1963; assay: cells; assay type: functional, cell-based; conditions: Homo sapiens;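 also: cell growth inhibition of the human line, determined with a cell viability assay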
Description: SANGER: Inhibition of human NCI-H1963 cell growth in a cell viability assay.

[4] = tested on: AN3-CA; assay: cells; assay type: functional, cell-based; conditions: Homo sapiens;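 also: growth inhibition of human AN3-CA cells measured by a cell viability assay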
Description: SANGER: Inhibition of human AN3-CA cell growth in a cell viability assay.

[5] = tested on: CAPAN-1; assay: cells; assay type: functional, cell-based; conditions: Homo sapiens;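 also: growth suppression of CAPAN-1 cells, read out by a cell viability assay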
Description: SANGER: Inhibition of human CAPAN-1 cell growth in a cell viability assay.

[6] = tested on: MEL-JUSO; assay: cells; assay type: functional, cell-based; conditions: Homo sapiens;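 also: growth inhibition of human MEL-JUSO cells, read out with a cell viability assay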
Description: SANGER: Inhibition of human MEL-JUSO cell growth in a cell viability assay.

[7] = tested on: MIA PaCa-2; assay: cells; assay type: functional, cell-based; conditions: Homo sapiens;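 also: growth inhibition of MIA PaCa-2 cells, read out with a cell viability assay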
Description: SANGER: Inhibition of human MIA-PaCa-2 cell growth in a cell viability assay.

[8] = tested on: HCT-15; assay: cells; assay type: functional, cell-based; conditions: Homo sapiens;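 also: cell viability readout, IC50 reflecting suppression of HCT-15 cell growth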
Description: SANGER: Inhibition of human HCT-15 cell growth in a cell viability assay.

[9] = tested on: HT1197; assay: cells; assay type: functional, cell-based, HT-1197; conditions: Homo sapiens
Description: SANGER: Inhibition of human HT-1197 cell growth in a cell viability assay.

[10] = tested on: SW780; assay: cells; assay type: functional, cell-based; conditions: Homo sapiens;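 also: growth inhibition of the cells, read out with a cell viability assay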
Description: SANGER: Inhibition of human SW780 cell growth in a cell viability assay.

[11] = tested on: TYK-nu; assay: cells; assay type: functional, cell-based; conditions: Homo sapiens;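 also: growth inhibition of human TYK-nu cells, read out by a cell viability assay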
Description: SANGER: Inhibition of human TYK-nu cell growth in a cell viability assay.

[12] = tested on: C3A; assay: cells; assay type: functional, cell-based; conditions: Homo sapiens;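 also: growth inhibition of C3A human cells, quantified with a cell viability readout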
Description: SANGER: Inhibition of human C3A cell growth in a cell viability assay.

[13] = tested on: HSC-4; assay: cells; assay type: functional, cell-based; conditions: Homo sapiens;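 also: growth inhibition of human HSC-4 cells, read out with a cell viability assay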
Description: SANGER: Inhibition of human HSC-4 cell growth in a cell viability assay.

[14] = tested on: RPMI-7951; assay: cells; assay type: functional, cell-based; conditions: Homo sapiens
Description: SANGER: Inhibition of human RPMI-7951 cell growth in a cell viability assay.

[15] = tested on: SW-620; assay: cells; assay type: functional, cell-based; conditions: Homo sapiens;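 also: growth inhibition of human SW-620 cells, measured by a cell viability assay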
Description: SANGER: Inhibition of human SW620 cell growth in a cell viability assay.

[16] = tested on: OPM-2; assay: cells; assay type: functional, cell-based; conditions: Homo sapiens;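 also: growth of OPM-2 cells measured with a viability assay, IC50 for suppression of proliferation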
Description: SANGER: Inhibition of human OPM-2 cell growth in a cell viability assay.

[17] = tested on: A204; assay: cells; assay type: functional, cell-based; conditions: Homo sapiens;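 also: growth inhibition of human A204 cells, read out with a cell viability assay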
Description: SANGER: Inhibition of human A204 cell growth in a cell viability assay.

[18] = tested on: SK-LU-1; assay: cells; assay type: functional, cell-based; conditions: Homo sapiens;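 also: cell viability assay measuring growth inhibition of human SK-LU-1 cells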
Description: SANGER: Inhibition of human SK-LU-1 cell growth in a cell viability assay.

[19] = tested on: EGI-1; assay: cells; assay type: functional, cell-based; conditions: Homo sapiens;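 also: cell viability readout used to gauge growth inhibition of EGI-1 cells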
Description: SANGER: Inhibition of human EGI-1 cell growth in a cell viability assay.

[20] = tested on: SK-MEL3; assay: cells; assay type: functional, cell-based, SK-MEL-3; conditions: Homo sapiens;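 also: growth inhibition of human SK-MEL-3 cells, read out with a cell viability assay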
Description: SANGER: Inhibition of human SK-MEL-3 cell growth in a cell viability assay.

[21] = tested on: NCI-H2141; assay: cells; assay type: functional, cell-based; conditions: Homo sapiens;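 also: growth inhibition of human NCI-H2141 cells, read out with a cell viability assay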
Description: SANGER: Inhibition of human NCI-H2141 cell growth in a cell viability assay.

[22] = tested on: G-361; assay: cells; assay type: functional, cell-based; conditions: Homo sapiens
[23] = tested on: BXPC-3; assay: cells; assay type: functional, cell-based; conditions: Homo sapiens;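 also: growth inhibition of human BxPC-3 cells, read out by a cell viability assay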
Description: SANGER: Inhibition of human BxPC-3 cell growth in a cell viability assay.

[24] = tested on: Calu-3; assay: cells; assay type: functional, cell-based; conditions: Homo sapiens;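 also: growth inhibition of human Calu-3 cells, determined with a cell viability assay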
Description: SANGER: Inhibition of human Calu-3 cell growth in a cell viability assay.

[25] = tested on: CESS; assay: SANGER: Inhibition of human CESS cell growth in a cell viability assay.; assay type: functional, cell-based
[26] = tested on: NCI-H1882; assay: cells; assay type: functional, cell-based; conditions: Homo sapiens;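 also: growth inhibition of the cell line, determined with a viability assay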
Description: SANGER: Inhibition of human NCI-H1882 cell growth in a cell viability assay.

[27] = tested on: T47D; assay: cells; assay type: functional, cell-based; conditions: Homo sapiens;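 also: growth inhibition of human T47D cells, measured with a cell viability assay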
Description: SANGER: Inhibition of human T47D cell growth in a cell viability assay.

[28] = tested on: K052; assay: cells; assay type: functional, cell-based; conditions: Homo sapiens;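 also: Read-out from a cell viability assay, IC50 reflecting suppression of K052 cell growth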
Description: SANGER: Inhibition of human K052 cell growth in a cell viability assay.

[29] = tested on: HCC1395; assay: cells; assay type: functional, cell-based; conditions: Homo sapiens;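 also: growth inhibition of HCC1395 cells, read out by a cell viability assay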
Description: SANGER: Inhibition of human HCC1395 cell growth in a cell viability assay.

[30] = tested on: LU-165; assay: cells; assay type: functional, cell-based; conditions: Homo sapiens
Description: SANGER: Inhibition of human LU-165 cell growth in a cell viability assay.

[31] = tested on: CHP-212; assay: cells; assay type: functional, cell-based; conditions: Homo sapiens
Description: SANGER: Inhibition of human CHP-212 cell growth in a cell viability assay.

[32] = tested on: U2OS; assay: cells; assay type: functional, cell-based, U-2-OS; conditions: Homo sapiens;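 also: growth inhibition of human U-2-OS cells, determined with a cell viability assay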
Description: SANGER: Inhibition of human U-2-OS cell growth in a cell viability assay.

[33] = tested on: SK-MEL-28; assay: cells; assay type: functional, cell-based; conditions: Homo sapiens;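 also: growth inhibition of human SK-MEL-28 cells, read out with a cell viability assay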
Description: SANGER: Inhibition of human SK-MEL-28 cell growth in a cell viability assay.

[34] = tested on: IMR-5; assay: cells; assay type: functional, cell-based; conditions: Homo sapiens;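 also: growth inhibition of human IMR-5 cells, read out with a cell viability assay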
Description: SANGER: Inhibition of human IMR-5 cell growth in a cell viability assay.

[35] = tested on: NCI-H64; assay: cells; assay type: functional, cell-based; conditions: Homo sapiens;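 also: growth inhibition of NCI-H64 cells, read out with a cell viability assay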
Description: SANGER: Inhibition of human NCI-H64 cell growth in a cell viability assay.

[36] = tested on: KYSE-450; assay: cells; assay type: functional, cell-based; conditions: Homo sapiens;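 also: cell growth inhibition measured by a viability assay in human KYSE-450 cells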
Description: SANGER: Inhibition of human KYSE-450 cell growth in a cell viability assay.

[37] = tested on: NCI-H650; assay: cells; assay type: functional, cell-based; conditions: Homo sapiens;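 also: growth inhibition of NCI-H650 cells, read out by a viability assay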
Description: SANGER: Inhibition of human NCI-H650 cell growth in a cell viability assay.

[38] = tested on: ARH-77; assay: cells; assay type: functional, cell-based; conditions: Homo sapiens;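 also: growth inhibition of ARH-77 cells, read out by a cell viability assay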
Description: SANGER: Inhibition of human ARH-77 cell growth in a cell viability assay.

[39] = tested on: MDA-MB-415; assay: cells; assay type: functional, cell-based; conditions: Homo sapiens
[40] = tested on: GMS-10; assay: cells; assay type: functional, cell-based; conditions: Homo sapiens;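 also: growth inhibition of GMS-10 cells, read out as cell viability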
Description: SANGER: Inhibition of human GMS-10 cell growth in a cell viability assay.

[41] = tested on: CAMA-1; assay: cells; assay type: functional, cell-based; conditions: Homo sapiens;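 also: growth inhibition of CAMA-1 cells, read out with a cell viability assay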
Description: SANGER: Inhibition of human CAMA-1 cell growth in a cell viability assay.

[42] = tested on: UACC-62; assay: cells; assay type: functional, cell-based; conditions: Homo sapiens;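 also: growth inhibition of human UACC-62 cells, read out by a cell viability assay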
Description: SANGER: Inhibition of human UACC-62 cell growth in a cell viability assay.

[43] = tested on: RL; assay: cells; assay type: functional, cell-based; conditions: Homo sapiens
Description: SANGER: Inhibition of human RL cell growth in a cell viability assay.

[44] = tested on: HSC-2; assay: cells; assay type: functional, cell-based; conditions: Homo sapiens;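 also: growth inhibition of human HSC-2 cells, read out by a cell viability assay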
Description: SANGER: Inhibition of human HSC-2 cell growth in a cell viability assay.

[45] = tested on: C32; assay: cells; assay type: functional, cell-based; conditions: Homo sapiens;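 also: cell viability assay, with IC50 reflecting inhibition of C32 cell growth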
Description: SANGER: Inhibition of human C32 cell growth in a cell viability assay.

[46] = tested on: HuP-T4; assay: cells; assay type: functional, cell-based; conditions: Homo sapiens;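 also: cell viability assay measuring how much HuP-T4 cell growth is inhibited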
Description: SANGER: Inhibition of human HuP-T4 cell growth in a cell viability assay.

[47] = tested on: A253 cell line; assay: cells; assay type: functional, cell-based; conditions: Homo sapiens;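 also: growth inhibition of A253 cells, read out with a cell viability assay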
Description: SANGER: Inhibition of human A253 cell growth in a cell viability assay.

[48] = tested on: RCM-1; assay: cells; assay type: functional, cell-based; conditions: Homo sapiens;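 also: growth inhibition of the RCM-1 line, determined with a cell viability readout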
Description: SANGER: Inhibition of human RCM-1 cell growth in a cell viability assay.

[49] = tested on: HCC1954; assay: cells; assay type: functional, cell-based; conditions: Homo sapiens;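 also: growth inhibition of human HCC1954 cells, read out with a cell viability assay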
Description: SANGER: Inhibition of human HCC1954 cell growth in a cell viability assay.

[50] = tested on: BFTC-909; assay: cells; assay type: functional, cell-based; conditions: Homo sapiens
Description: SANGER: Inhibition of human BFTC-909 cell growth in a cell viability assay.

[51] = tested on: SCC-3; assay: cells; assay type: functional, cell-based; conditions: Homo sapiens;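 also: cell viability assay measuring inhibition of SCC-3 cell growth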
Description: SANGER: Inhibition of human SCC-3 cell growth in a cell viability assay.

[52] = tested on: KYSE-270; assay: cells; assay type: functional, cell-based; conditions: Homo sapiens;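 also: cell growth inhibition measured with a viability assay in the human KYSE-270 line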
Description: SANGER: Inhibition of human KYSE-270 cell growth in a cell viability assay.

[53] = tested on: FaDu; assay: cells; assay type: functional, cell-based; conditions: Homo sapiens;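 also: cell viability readout of growth inhibition in FaDu cells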
Description: SANGER: Inhibition of human FADU cell growth in a cell viability assay.

[54] = tested on: SU-DHL-1; assay: SANGER: Inhibition of human SU-DHL-1 cell growth in a cell viability assay.; assay type: functional, cell-based
[55] = tested on: Panc1005; assay: cells; assay type: functional, cell-based; conditions: Homo sapiens;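 also: growth inhibition of human PANC-10-05 cells, measured by a cell viability assay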
Description: SANGER: Inhibition of human PANC-10-05 cell growth in a cell viability assay.

[56] = tested on: ASPC1; assay: cells; assay type: functional, cell-based; conditions: Homo sapiens;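 also: growth inhibition of AsPC-1 cells, read out with a cell viability assay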
Description: SANGER: Inhibition of human AsPC-1 cell growth in a cell viability assay.

[57] = tested on: ABC-1; assay: cells; assay type: functional, cell-based; conditions: Homo sapiens;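 also: growth inhibition of human ABC-1 cells, read out by a cell viability assay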
Description: SANGER: Inhibition of human ABC-1 cell growth in a cell viability assay.

[58] = tested on: MKN-45; assay: cells; assay type: functional, cell-based; conditions: Homo sapiens;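 also: growth inhibition of human MKN-45 cells, measured with a cell viability assay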
Description: SANGER: Inhibition of human MKN45 cell growth in a cell viability assay.

[59] = tested on: CHP-126; assay: cells; assay type: functional, cell-based; conditions: Homo sapiens
Description: SANGER: Inhibition of human CHP-126 cell growth in a cell viability assay.

[60] = tested on: IGR-1; assay: cells; assay type: functional, cell-based; conditions: Homo sapiens;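 also: growth inhibition of human IGR-1 cells, read out with a cell viability assay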
Description: SANGER: Inhibition of human IGR-1 cell growth in a cell viability assay.

[61] = tested on: CAL-62; assay: cells; assay type: functional, cell-based; conditions: Homo sapiens
Description: SANGER: Inhibition of human CAL-62 cell growth in a cell viability assay.

[62] = tested on: SNU-C1; assay: cells; assay type: functional, cell-based; conditions: Homo sapiens
Description: SANGER: Inhibition of human SNU-C1 cell growth in a cell viability assay.

Fc1cc(-c2cc[nH]/c(=N/c3ccc(-n4cnc(N5CCOCC5)n4)cc3)n2)cc(N2CCOCC2)c1 gave an IC50 [1] of 865 nM, an IC50 [2] of 494 nM and an IC50 [3] of 873 nM. For the same compound, the IC50 [4] was 335 nM, the IC50 [5] was 394 nM and the IC50 [6] was 286 nM. It also gave an IC50 [7] of 1400 nM, an IC50 [8] of 258 nM and an IC50 [9] of 611 nM. The IC50 [10] was 1630 nM, the IC50 [11] was 2620 nM and the IC50 [12] was 566 nM. For the same compound, the IC50 [13] was 4.25 µM, the IC50 [14] was 721 nM and the IC50 [15] was 355 nM. For the same compound, the IC50 [16] was 514 nM, the IC50 [17] was 165 nM and the IC50 [18] was 987 nM. For the same compound, the IC50 [19] was 686 nM, the IC50 [20] was 877 nM and the IC50 [21] was over 5.12 µM. It also gave an IC50 [22] of 266 nM, an IC50 [23] of 351 nM and an IC50 [24] of 824 nM. The IC50 [25] was 341 nM, the IC50 [26] was 1080 nM and the IC50 [27] was over 5.12 µM. The IC50 [28] was 508 nM, the IC50 [29] was 413 nM and the IC50 [30] was 825 nM. For the same compound, the IC50 [31] was 286 nM, the IC50 [32] was over 5.12 µM and the IC50 [33] was over 5.12 µM. For the same compound, the IC50 [34] was 2050 nM, the IC50 [35] was 862 nM and the IC50 [36] was 329 nM. It also gave an IC50 [37] of 141 nM, an IC50 [38] of 574 nM and an IC50 [39] of 1330 nM. It also gave an IC50 [40] of 2840 nM, an IC50 [41] of over 5.12 µM and an IC50 [42] of 370 nM. The IC50 [43] was 1590 nM, the IC50 [44] was 223 nM and the IC50 [45] was over 5.12 µM. For the same compound, the IC50 [46] was 3.26 µM, the IC50 [47] was 261 nM and the IC50 [48] was 1760 nM. For the same compound, the IC50 [49] was 1220 nM, the IC50 [50] was 838 nM and the IC50 [51] was 582 nM. For the same compound, the IC50 [52] was 222 nM, the IC50 [53] was 715 nM and the IC50 [54] was 346 nM. The IC50 [55] was 460 nM, the IC50 [56] was 3.8 µM and the IC50 [57] was 889 nM. It also gave an IC50 [58] of 994 nM, an IC50 [59] of 608 nM and an IC50 [60] of 164 nM. For the same compound, the IC50 [61] was 893 nM and the IC50 [62] was 390 nM.

For CC(O)(CS(=O)(=O)c1ccc(F)cc1)C(=O)Nc1ccc(C#N)c(C(F)(F)F)c1 (centres undefined) [BICALUTAMIDE], the IC50 [1] was over 1020 nM, the IC50 [2] was over 1020 nM and the IC50 [3] was over 1020 nM. It also gave an IC50 [4] of over 1020 nM, an IC50 [5] of over 1020 nM and an IC50 [6] of over 1020 nM. It also gave an IC50 [7] of over 1020 nM, an IC50 [8] of over 1020 nM and an IC50 [9] of over 1020 nM. It also gave an IC50 [10] of over 1020 nM, an IC50 [11] of over 1020 nM and an IC50 [12] of over 1020 nM. For the same compound, the IC50 [13] was over 1.02 µM, the IC50 [14] was over 1020 nM and the IC50 [15] was over 1020 nM. The IC50 [16] was over 1020 nM, the IC50 [17] was over 1020 nM and the IC50 [18] was over 1020 nM. It also gave an IC50 [19] of over 1020 nM, an IC50 [20] of over 1020 nM and an IC50 [21] of over 1.02 µM. For the same compound, the IC50 [22] was over 1020 nM, the IC50 [23] was over 1020 nM and the IC50 [24] was over 1020 nM. The IC50 [25] was over 1020 nM, the IC50 [26] was over 1020 nM and the IC50 [27] was over 1.02 µM. It also gave an IC50 [28] of over 1020 nM, an IC50 [29] of over 1020 nM and an IC50 [30] of over 1020 nM. For the same compound, the IC50 [31] was over 1020 nM, the IC50 [32] was over 1.02 µM and the IC50 [33] was over 1.02 µM. The IC50 [34] was over 1020 nM, the IC50 [35] was over 1020 nM and the IC50 [36] was over 1020 nM. For the same compound, the IC50 [37] was over 1020 nM, the IC50 [38] was over 1020 nM and the IC50 [39] was over 1020 nM. For the same compound, the IC50 [40] was over 1020 nM, the IC50 [41] was over 1.02 µM and the IC50 [42] was over 1020 nM. It also gave an IC50 [43] of over 1020 nM, an IC50 [44] of over 1020 nM and an IC50 [45] of over 1.02 µM. It also gave an IC50 [46] of over 1.02 µM, an IC50 [47] of over 1020 nM and an IC50 [48] of over 1020 nM. For the same compound, the IC50 [49] was over 1020 nM, the IC50 [50] was over 1020 nM and the IC50 [51] was over 1020 nM. It also gave an IC50 [52] of over 1020 nM, an IC50 [53] of over 1020 nM and an IC50 [54] of over 1020 nM. It also gave an IC50 [55] of over 1020 nM, an IC50 [56] of over 1.02 µM and an IC50 [57] of over 1020 nM. For the same compound, the IC50 [58] was over 1020 nM, the IC50 [59] was over 1020 nM and the IC50 [60] was over 1020 nM. The IC50 [61] was over 1020 nM and the IC50 [62] was over 1020 nM.
